Measured values: patent publication US6420377B1, “Covalent conjugates of topoisomerase I and topoisomerase II inhibitors” (priority 1997, dated 2002)
Read-outs that look alike come from different tables or passages of the source.

Experiments:
KB-VIN20c [1] = experiment: Cytotoxicity measured as reduced plating efficiency, KB-VIN20c cells; format: cell-based; settings: 3 h, read-out: Cytotoxicity Measured as Reduced Plating Efficiency IC50
Protocol: (§1) LC50 concentrations were determined by treating cells for three hours with different concentrations of compounds then replating cells to measure colony formation and plating efficiency as the percent of total cells forming colonies. Compounds were evaluated in three independent experiments. The plating efficiences of untreated cells varied between experiments with values ranging from 14-31% for KB, 31-56% for KB-7d, 16-38% for KB-VIN20c and 21-36% for KB-CPT100. A concentration of compound that reduced plating efficiency by fifty percent relative to control, the LC50, was determined graphically as stated in the preceding section.

KB = experiment: Cytotoxicity measured as reduced plating efficiency, KB cells; format: cell-based; settings: Homo sapiens, 3 h, read-out: Cytotoxicity Measured as Reduced Plating Efficiency IC50
Protocol: as §1

[2] = test system: KB oral carcinoma cell line; experiment: Cell growth inhibition, KB cells; format: cell-based
Protocol: (§2) The KB oral carcinoma cell line was provided by M. Fisher (Pharmacology, UNC- Chapel Hill). The isolation and properties of the etoposide-resistant sub-clone, KB-7d, and the camptothecin-resistant line, KB-CPT100, were reported in P. Ferguson et al., Cancer Res. 48:5956 (1988) and D. Beidler et al., Cancer Res. 56:345 (1996), and are discussed briefly hereinafter. The vincristine-resistant sub-clone, KB-VIN20c was isolated by selection in 20 nM vincristine and over-expresses the P-glycoprotein multidrug-resistant drug-efflux protein (unpublished results).
(§3) All cell types were propagated in RPMI-1640 medium supplemented with 5% (v/v) fetal calf serum and 100 μg/mL kanamycin at 37° in a humidified atmosphere of 5% CO2 and 95% air. Over the course of the experiments, doubling times of cells were 24±4 hours.
(§4) Fifty thousand cells were plated in 25 cm^2 flasks (Falcon, N.J., USA) and incubated overnight. The medium was supplemented with test compounds at various concentrations and cultures were incubated for 48-51 hours (for about two cell doublings) before cells were trypsinized and then counted using a hemacytometer. The number of treated cells which excluded 0.5% (v/v) trypan blue were expressed as a percentage of the growth measured in control cultures. Compounds were evaluated in at least two independent experiments and the combined results were analyzed as scatter plots with dose-responses being computer fitted by linear regression at the 95% confidence level using Graphpad Software., San Diego, Calif. The IC50 concentrations which inhibited cell growth by fifty percent relative to control were interpolated from graphed results.

KB cells [3] = experiment: Cellular protein-DNA complex formation (potassium-SDS precipitation); format: cell-based; settings: high concentration (7.5-60 micromolar); one hour
Protocol: Stimulation of intracellular protein associated DNA breaks was measured using a standard assay method described in Y. Kashiwada et al., J. Pharm. Sci. 82:487 (1993). Briefly, KB cells were labeled overnight with tritiated thymidine (0.5 μCi/mL), chased for two hours and then treated in triplicate with test compounds at various concentrations. After one hour, samples were processed and protein-DNA complexes were measured as potassium-SDS precipitable radioactivity.

KB-CPT100 [4] = experiment: Cell growth inhibition, camptothecin-resistant KB-CPT100 cells; format: cell-based
Protocol: as §2, §3, §4

[5] = test system: calf thymus DNA topoisomerase II; experiment: In vitro topoisomerase-DNA cleavage assay, topoisomerase II; format: biochemical
Excerpt: Calf thymus DNA topoisomerases were purchased from TopoGen Inc., Columbus, Ohio. Tritium-labeled thymidine (60-90 ci/mmol) for labeling cellular DNA to measure protein-DNA complexes and αP^32-labeled deoxycytidine triphosphate (>3000 ci/mmol) were obtained from ICN Biochemicals Inc., Irvine, Calif. The latter radiochemical was used with a T4-DNA polymerase polymerase-labeling system from BRL Inc., Gaithersburg, Md., to prepare P^32-plasmid DNA for in vitro cleavage assays. Tissue culture reagents were purchased from Sigma Chemical Co., St. Louis, Mo., and Gibco-BRL Inc. All other chemicals were reagent grade.
The detailed method used to measure stimulation of cleavable complexes in vitro is described in K. Bastow et al., Planta Med. 59:195 (1993).. Briefly, incubated cleavage reactions containing one nanogram of P^32 end-labeled linearized PBR322 DNA, one unit of enzyme and test compound were divided equally for analysis. One portion was prepared for gel electrophoresis with subsequent autoradiography and protein-DNA complexes in the remaining sample were analyzed using the potassium-SDS precipitation method and scintillation spectrometry.

KB-VIN20c [6] = experiment: Cell growth inhibition, vincristine-resistant KB-VIN20c cells; format: cell-based; settings: read-out: Cell Growth Inhibition IC50
Protocol: as §2, §3, §4

KB cells [7] = experiment: Gel lysis assay for genomic DNA breaks; format: cell-based
Protocol: One million KB cells in 25cm^2 flasks were treated for three hours with test compound, the medium was discarded then cells were scraped into ice-cold PBS and harvested by centrifugation. Washed cell pellets were resuspended in eighty microliters of a 37° C. gel solution [1% (w/v) low-melting point agarose in PBS], and were cast in a mold and refrigerated to form 6×7×2 mm agarose plugs. Plugs of cells were incubated in lysis-digestion buffer (0.4M EDTA, 0.01 Tris (HCl, pH 8.0), 1% (w/v) N-lauryl-sarcosine and 100 μg/mL proteinase K) at 37° overnight or 50° for one hour. The treated plugs were equilibrated in TBE buffer and placed against a gel comb in a horizontal gel casting tray (BRL Inc., H4 system format). A 55° gel solution containing 0.8% (w/v) agarose in TBE was poured and allowed to gel. Electrophoresis was at 3.5 v/cm (measured between electrodes) for 16 hours at 4° without buffer re-circulation. The gel was stained with 1 μg/mL ethidium bromide in water, treated overnight at 25° C. with RN'ase (1 μg/mL), and then photographed under UV illumination. For the reversibility studies, treated cells were washed with PBS and incubated with fresh media for an additional hour before harvesting for plug preparation and gel analysis.

KB-CPT100 [8] = experiment: Cytotoxicity measured as reduced plating efficiency, KB-CPT100 cells; format: cell-based; settings: KBCPT100, 3 h, read-out: Cytotoxicity Measured as Reduced Plating Efficiency IC50
Protocol: as §1

CC[C@@]1(O)C(=O)OCc2c1cc1n(c2=O)Cc2c-1nc1ccccc1c2/C=N/c1ccccc1N[C@@H]1c2cc3c(cc2[C@@H](c2cc(OC)c(O)c(OC)c2)[C@H]2C(=O)OC[C@@H]21)OCO3 [Compound S-2]
IC50 (KB-VIN20c [1]): 4600 nM | IC50 (KB): 4000 nM | activity at inhibiting KB cell growth relative to C-1 [2]: about ten-fold more active | IC50 ([2]; Homo sapiens, KB, read-out: Cell Growth Inhibition IC50): 14 nM | intracellular protein-DNA complex formation, dose behaviour (KB cells [3]): not dose-inhibitory at high concentration | IC50 (KB-CPT100 [4]; KBCPT100, read-out: Cell Growth Inhibition IC50): 85 nM | cross-resistance of KB-CPT100 cells, growth inhibition (KB-CPT100 [4]; relative to KB): only six-fold cross-resistant | stimulation of in vitro topoisomerase II cleavable-complexes, dose behaviour [5]: dose-inhibitory | stimulation of topoisomerase II-induced DNA cleavage over enzyme control ([5]; fifty micromolar): only marginal stimulation | stimulation of topoisomerase II-induced DNA cleavage over enzyme control ([5]; one micromolar): only marginal stimulation | stimulation of topoisomerase II-induced DNA cleavage over enzyme control ([5]; ten micromolar): ~4 fold | cleavable complex formation with topoisomerase II ([5]; ten micromolar, FIG. 1A): induced cleavable complexes | topoisomerase II cleavable complex activity relative to unconjugated components ([5]; ten micromolar, S-1 vs 3, 4a, S-2 vs 3, 4b): reduced about two-fold | IC50 (KB-VIN20c [6]): 27 nM | genomic DNA fragmentation (KB cells [7]): marginal DNA fragmentation | genomic DNA fragmentation (KB cells [7]; twenty-fold higher concentration (3 at sixteen micromolar), three hours): high molecular mass genomic fragments were detected | reversal of genomic DNA fragmentation upon drug removal (KB cells [7]; twenty-fold higher concentration, additional hour in fresh media): only partially restored | IC50 (KB-CPT100 [8]): 2000 nM
